Earlier results on 1 substance are cited in US8748087B2, “Sequence of reverse transcriptase gene and method of use” (Fudan University, priority 2005, dated 2014).

The series has as its system HBV. Particulars: patients with chronic hepatitis B.

As for interferon alpha, the overall response rates result is “less than 30%”.
